For data set [1], the system named is PC3 xenografts. Put plainly: Small animal PET/CT imaging of tracer uptake in PC3 xenografts. The conditions noted are these: 2 hours postinjection, listed as 18F-clicked-FTO. The format is in vivo, mice. The protocol: Small animal PET/CT imaging was performed as previously described (Sprague et al., Clin. Cancer. Res. 2004, 10 (24), 8674-8682). Briefly, the ^18F-clicked palmitate or ^18F-clicked oleate analog (3.7 MBq) was injected via tail vein and the mouse was imaged at 2 hours postinjection. Static imaging was performed on an Inveon PET/CT scanner (Constantinescu et al., Phys. Med. Biol., 54, 2885-2899, 2009; Kemp et al., Phys. Med. Biol., 54, 2359-2376, 2009) with 10 min PET scanning followed by a 5 min CT. Inveon Research Workplace (IRW) from Siemens Healthcare Global was used for co-registration of PET/CT images and quantification of regions of interest (ROI). PET/CT images were reconstructed with maximum a posteriori (MAP), 3D ordered-subset expectation maximization (OSEM3D), 2D ordered-subset expectation maximization (OSEM2D), and filtered back projection (2DFBP). Standard uptake values (SUV) were generated by measuring ROI from PET/CT images and calculated with the formula: SUV=[nCi/ml]×[animal weight (g)]/injected dose [nCi]. FDG was injected intraperitoneally 36 hours pre-injection. 2-DG was injected intraperitoneally 4 hours pre-injection. […]

In data set [2] the test system is β-oxidation (myocardial uptake). The experiment in a line: Blockage of β-oxidation / myocardial uptake with etomoxir. The format is in vivo, mice. An excerpt:
FIG. 13 is a graph showing the blockage of β-oxidation of ^18F-labeled FTO (“FTO,” left bar, Compound I) and the ^18F-labeled oleate analog (“clicked FTO,” right bar, compound Va) with etomoxir.

The test system of data set [3] is β-oxidation in heart tissue. Put plainly: Folch-type extraction of 18F signal in heart tissue (oxidized vs unoxidized analog). The format is in vivo, mice (ICR strain). An excerpt: FIGS. 9-10 are graphs showing the distribution of ^18F signal in heart tissue taken from fasted mice (ICR strain) administered the ^18F-labeled oleate analog (compound Va). Folch-type extraction was used to separate “Organic” (unoxidized analog) from “Pellets” and “Aqueous” (oxidized fatty acid metabolites).

Data set [4] in a line: Tissue biodistribution of 18F-labeled tracers postinjection. Type of data set: in vivo, mice (ICR strain). To be noted: for background muscle uptake: 0.5 and 2 hours postinjection. How it is done:
FIGS. 11 and 12 are graphs showing biodistribution of ^18F-labeled FTO (“FTO,” left bar, Compound I) and the ^18F-labeled oleate analog (“clicked FTO,” right bar, compound Va) at 0.5 hours (FIG. 11) and 2 hours (FIG. 12) postinjection into mice (ICR strain). Similar to ^18F-FTO, the ^18F-labeled oleate analog has low background muscle uptake at 0.5 and 2 hours postinjection.
FIG. 14 is a table showing tissue biodistribution of ^18F-labeled-Oleate analog (compound Va) in mice (ICR strain).

For data set [5], the system named is PCa cells. To be noted: cited from earlier work.
The subject of data set [6] is Ehrlich ascites tumor cells. The conditions noted are these: injected directly into the peritoneal fluid; cited from earlier work.
Data set [7] concerns PC3 cells. Put plainly: Post-fix click fluorescence microscopy of alkyne fatty acid uptake. Type of data set: cell-based. To be noted: fixed, permeated, stained with sulfo-Cy3-azide. The protocol:
Cells were treated with Alkyn-4-Thia-Palmitate, Alkyn-Palmitate, or control. The cells were then fixed, and incubated with sulfo-Cy3 azide to detect the trapped fatty acid analog.
This example illustrates in vitro analysis of fatty acid metabolism using the disclosed compounds. Cells were incubated with a fatty acid analog including a terminal alkyne group, fixed, and then treated with sulfo-Cy3-azide. The sulfo-Cy3-azide undergoes a click chemistry reaction (a 1,3-dipolar cycloaddition) with the terminal […] of the fatty acid homolog in the fixed cells to form a triazole ring linked to the fatty acid analog. The Cy3 moiety is then detected by fluorescence microscopy.
• 1. Place approximately 500 PC3 cells on coverslip in 24 well plates. • 2. Starve the cell with 250 μL of glucose free media overnight. • 3. Replace the media before the experiment with fresh 250 μL of glucose free media. • 4. Add alkyne fatty acid to the selected wells with coverslip and 1% BSA 10 μL in the control well and incubate at 37° C. for 1 or 2 h. • 5. After respective time wash the cells with 500 μL of 1% BSA for 3×5 min to remove extra fatty acid. • 6. Fix the cells with 300 μL of 4% paraformaldehyde (PFA) for 15 min • 7. Wash the cells once with PBS. • 8. […] Mount the coverslip and analyze by fluorescence microscopy. […]

Several values for one entry are separate records, joined by “and”; a condition that tells them apart may be missing. Identical values can stand only once.

The values below come from patent US20160185735A1, “FATTY ACID ANALOGS AND THEIR USE” (UNIVERSITY OF PITTSBURGH - OF THE COMMONWEALTH SYSTEM OF …, priority 2013, published 2016).

For the compound `O=C(O)CCSCCCC/C=C\CCCCCCCc1cn(CC[18F])nn1` [compound Va, (Z)-3-((13-(1-(2-[^18F]fluoroethyl)-1H-1,2,3-triazol-4-yl)tridec-5-en-1-yl)thio)propanoic acid], the “uptake in the tumor (SUV)” value was 0.21 and 0.22 in data set [1] (2-DG and FDG treated mice, 3.7 MBq via tail vein); 0.15 and 0.18 in data set [1] (control group not treated with 2-DG and FDG). The “myocardial uptake, blockage with etomoxir” value in data set [2] is on record as “can be blocked with etomoxir”. Besides, in data set [3] (fasted mice, Organic (unoxidized) vs Pellets and Aqueous (oxidized metabolites)), the “oxidation of the analog in heart tissue over time” value is “more of the fatty acid analog was oxidized”. The background muscle uptake result in data set [4] is given as “low”. Besides, in data set [4] (0.5 hours postinjection), the “in vivo defluorination relative to 18F-FTO” value is recorded as “significantly less”. For the same compound, the “in vivo defluorination relative to FTO” value in data set [4] (2 hours postinjection) is listed as “significantly inhibited”. Moreover, the “myocardial uptake relative to 18F-FTO” value in data set [4] (mice, postinjection) was “lower than the ^18F-FTO”.
Regarding `O=C(O)CCSCCCC/C=C\CCCCCCCC[18F]` [FTO, [^18F]Fluoro-4-thia-oleic acid, reference compound], the background muscle uptake result in data set [4] was “low”.
Turning to `[3H]C(CCCCCC)C([3H])CCCCCCCC(=O)O` (centres unmarked) [^3H-palmitic acid], the “uptake in PCa cells compared with 2-DG” value in data set [5] is given as “dominant uptake”.
Turning to ^14C-palmitate, in data set [6], the “incorporation into Ehrlich ascites tumor cells / cellular lipids” value is 40-50%.
Regarding alkyn-4-thia-palmitate, in data set [7], the “uptake by PCa cells” value is “avidly take up”.
For the compound `CCOC(=O)[C@@]1(CCCCCCOc2ccc(Cl)cc2)CO1` [Etomoxir, reference compound], the “effect on extent of β-oxidation of the 18F-labeled oleate analog in heart tissue” value in data set [3] (fasted mice given compound Va) is recorded as “reduced the extent of the β-oxidation”.
As for `O=C[C@H](O)[C@@H](O)[C@H](O)[C@H](O)CO` [^14C-glucose], in data set [6], the “incorporation into Ehrlich ascites tumor cells / cellular lipids” value is on record as 1%.
